Consider three molecules from paper PMC10056636, “3-Amino-Substituted Analogues of Fusidic Acid as Membrane-Active Antibacterial Compounds” (Membranes, 2023).

Converted amounts (≈) assume the structure as drawn. Like-named read-outs stand apart in the source and are kept apart here. Some results are limits rather than exact numbers.

For data set [1], the system named is Staphylococcus aureus (ATCC 43300) (MRSA). Put plainly: Antibacterial whole-cell growth inhibition (MIC, CO-ADD). The format is cell-based. The conditions noted are these: for MIC: S. aureus (MRSA) ATCC 43300, inhibition ≥80%, two replicates (n = 2). Here is the method:
(§1) Antibacterial screening was carried out by the serial dilution method. All bacteria were cultured in the cation-adjusted Mueller Hinton broth (CAMHB) at 37 °C overnight. A sample of each culture was then diluted 40-fold in fresh broth and incubated at 37 °C for 1.5–3 h. The resultant mid-log phase cultures were diluted (CFU/mL measured by OD600) and then added into each well containing a test compound, giving a cell density of 5 × 10^5 CFU/mL and a total volume of 50 µL. All the plates were covered and incubated at 37 °C for 18 h without shaking.
(§2) Inhibition of bacterial growth was determined by measuring the absorbance at 600 nm (OD600) with a Tecan M1000 Pro monochromator plate reader. […]

A further data set is described as follows: in vitro. The conditions noted are these: human, CC50. It is filed as cell-based, human. The method, then: (§3) HEK293 cells were counted manually in a Neubauer hemocytometer and then plated in 384-well plates containing the test compounds to give a density of 5000 cells per well in a final volume of 50 µL. DMEM supplemented with 10% FBS was used as the growth medium, and the cells were incubated together with the compounds for 20 h at 37 °C in 5% CO2.
(§4) The cytotoxicity (or cell viability) was measured by fluorescence, ex: 560/10 nm, em: 590/10 nm (F560/590), after addition of 5 µL of 25 µg/mL resazurin (2.3 µg/mL final concentration) and after incubation for further 3 h at 37 °C in 5% CO2. The fluorescence intensity was measured using a Tecan M1000 Pro monochromator plate reader with automatic gain control. The CC50 (50% cytotoxicity concentration) values were calculated by curve fitting of inhibition vs. log(concentration) using a sigmoidal dose–response function, with variable fitting values for bottom, top, and slope. In addition, the maximal percentage of cytotoxicity is reported as DMax, indicating any compounds with partial cytotoxicity. The curve fitting was implemented using Pipeline Pilot’s dose–response component. The results were similar to those obtained by other curve-fitting tools, such as GraphPad’s Prism and IDBS’s XlFit. Any value with > indicated samples with no activity (low DMax value) or samples with CC50 values above the maximum tested concentration (higher DMax value).
(§5) In addition, samples were flagged as partially cytotoxic if DMax ≥ 50%, even for CC50 > the maximum tested concentration.
(§6) Tamoxifen served as a positive cytotoxicity standard. Melittin was used as a positive hemolytic standard.

Data set [2] relates to human embryonic kidney cell line HEK293 (ATCC CRL-1573). Put plainly: in vitro. It is filed as cell-based. The settings on record: human, 20 h. Here is the method:
as §3, §4, §5, §6

Another data set in a line: Hemolysis assay. The format is cell-based, human. The conditions noted are these: human, Dmax (maximal percentage of hemolysis). The method, then: (§7) Human whole blood was washed three times with 3 volumes of 0.9% NaCl and then resuspended in the same medium to a concentration of 0.5 × 10^8 cells/mL, as determined by manual cell count in a Neubauer hemocytometer. The washed cells were then added to 384-well plates containing the test compounds to a final volume of 50 µL. After shaking on a plate shaker for 10 min, the plates were incubated for 1 h at 37 °C. After incubation, the plates were centrifuged at 1000× g for 10 min to pellet the cells and debris; 25 µL of the supernatant was then transferred to a polystyrene 384-well assay plate.
(§8) Hemolysis was monitored by measuring the supernatant absorbance at […] (OD405). The absorbance was measured using a Tecan M1000 Pro monochromator plate reader. HC10 and HC50 (10% and 50% hemolysis concentrations, respectively) were calculated by curve fitting of inhibition vs. log(concentration) using a sigmoidal dose–response function with variable fitting values for top, bottom, and slope. In addition, the maximal percentage of hemolysis is reported as DMax, indicating any compounds with partial hemolysis. The curve fitting was implemented using Pipeline Pilot’s dose–response component. […] Any value with > indicated sample with no activity (low DMax value) or samples with HC10 values above the maximum tested concentration (higher DMax value).
(§9) In addition, samples were flagged as partially hemolytic if DMax ≥ 50%, even for HC10 > the maximum tested concentration. […]

The next data set has as its system human red blood cells. Put plainly: Hemolysis assay. The format is cell-based. The conditions noted are these: human, 1 h. Here is the method:
as §7, §8, §9

For data set [3], the system named is Acinetobacter baumannii (ATCC 19606). Nature of the data set: Antibacterial whole-cell growth inhibition (MIC, CO-ADD). It is filed as cell-based. The conditions noted are these: A. baumannii, two replicates per cell. The method, then: as §1, §2
For data set [4], the system named is Escherichia coli (ATCC 25922). Described as above. It is filed as cell-based. The conditions noted are these: E. coli, two replicates per cell. The method, then:
as §1, §2

Data set [5] concerns Pseudomonas aeruginosa (ATCC 27853). The description is as above. It is filed as cell-based. The settings on record: P. aeruginosa, two replicates per cell. The method, then: as §1, §2
Data set [6] has as its system Candida albicans (ATCC 90028). Nature of the data set: Antifungal growth inhibition (MIC, CO-ADD). The format is cell-based. The conditions noted are these: C. albicans, inhibition ≥80%, two replicates per cell.
Data set [7] has as its system Cryptococcus neoformans (ATCC 208821). Put plainly: Antifungal growth inhibition (MIC, CO-ADD). The settings on record: inhibition ≥70%, two replicates per cell.
Procedure: Antimicrobial, cytotoxicity, and hemolytic activity screening of the synthesized derivatives was carried out in the CO-ADD (The Community for Antimicrobial Drug Discovery) (http://www.co-add.org, accessed on 24 November 2020) and included analysis for antibacterial properties, cytotoxicity, and hemolytic activity.
The hit confirmation test included five bacteria, Escherichia coli (ATCC 25922), Klebsiella pneumoniae (ATCC 700603), Acinetobacter baumannii (ATCC 19606), Pseudomonas aeruginosa (ATCC 27853), and Staphylococcus aureus (ATCC 43300), and two fungi, Candida albicans (ATCC 90028) and Cryptococcus neoformans (ATCC 208821). […] The compounds were also screened for hemolysis of human red blood cells (human whole blood, strain ARCBS 5400 00150).
Samples were prepared in DMSO and water to a final testing concentration of 32 µg/mL or 20 µM (unless otherwise indicated in the data sheet) and serially diluted twofold up to 8 times. Each sample concentration was prepared in 384-well plates: non-binding surface plate (NBS; Corning 3640) for each bacterial/fungal strain, tissue-culture treated (TC-treated; Corning 3712/3764) black for mammalian cell types and polypropylene 384-well plates (PP; Corning 3657) for hemolysis assays. The final DMSO concentration was maintained to a maximum of 0.5%. All sample preparation procedures were performed using liquid-handling robots. All screening was performed as two replica (n = 2), with both replicas on different assay plates, but from single plating and performed in a single screening experiment (microbial incubation). In addition, two values are used as quality controls for individual plates: Z′-Factor [1 − (3* (sd(NegCtrl) + sd(PosCtrl))/(average(PosCtrl)-average(NegCtrl)))] and standard antibiotic controls at different concentrations (>MIC and <MIC).
Fungi strains were cultured for 3 days on yeast extract-peptone dextrose (YPD) agar at 30 °C. A yeast suspension of 1 × 10^6 to 5 × 10^6 CFU/mL (as determined by OD530) was prepared from five colonies. The suspension was subsequently diluted and added to each well containing a test compound, giving a final cell density of fungi suspension of 2.5 × 10^3 CFU/mL and a total volume of 50 µL. All plates were covered and incubated at 35 °C for 36 h without shaking.
The absorbance was measured using a Biotek Multiflo Synergy HTX plate reader. In both cases, the percentage of growth inhibition was calculated for each well, using the negative control (media only) and positive control (fungi without inhibitors) in the same plate. […] In addition, the maximal percentage of growth inhibition is reported as DMax, indicating any compounds with marginal activity.
Fluconazole was used as a positive fungal inhibitor standard for C. albicans and C. neoformans. […] The quality control (QC) of the assays was performed using Z′-factors calculated from the negative (media only) and positive controls (bacterial, fungal, or cell culture without inhibitor) and the standards.
The mark [8] stands for this setting: Staphylococcus aureus, read-out: MIC.
Setting [9] is: Acinetobacter baumannii, ATCC19606, read-out: MIC.
Where [10] appears, read: Escherichia coli, ATCC25922, read-out: MIC.
[11] abbreviates: Pseudomonas aeruginosa, ATCC27853, read-out: MIC.
[12] abbreviates: Candida albicans, ATCC90028, read-out: MIC.

`CC(=O)O[C@H]1C[C@@]2(C)[C@H](C[C@@H](O)[C@@H]3[C@@]4(C)CC[C@H](NC(=O)c5cnccn5)[C@@H](C)C4CC[C@@]32C)/C1=C(\CCC=C(C)C)C(=O)O` (stereo partly drawn) [Compound 3, (2Z)-2-{(3β,4α,8α,11α,14β,16β)-16-(acetyloxy)-11-hydroxy-4,8,10,14-tetramethyl-3-[(pyrazin-2-ylcarbonyl)amino]gonan-17-ylidene}-6-methylhept-5-enoic acid] yielded a melting point of 162 to 164 °C. Besides, the MIC in [1] is ≤0.25 ≤0.25 µg/mL. For the same molecule, the “primary screening: antimicrobial activity” value in data set [1] (S. aureus (MRSA), primary screen at 32 μg/mL) was “showed antimicrobial activity”. For the same molecule, the minimal inhibitory concentration (MIC) in data set [1] (setting [8]) is 0.25 µg/mL (≈ 0.402 µM). Further, the cytotoxic concentration (CC50) at 20 h in the data set “in vitro” is > 32 µg/mL. The cytotoxic concentration (CC50) in [2] is on record as >32 >32 µg/mL. In the data set “Hemolysis assay”, this molecule showed a hemolysis at 1 h of 2.2%. In the data set on human red blood cells, the “Dmax (maximal percentage of hemolysis)” value was 1.4% and the HC50 was >32 >32 µg/mL.

In the case of `CC(=O)O[C@H]1C[C@@]2(C)[C@@H](C[C@@H](O)[C@H]3[C@@]4(C)CC[C@H](NCCCNCCCCNCCCN)[C@@H](C)[C@@H]4CC[C@@]32C)/C1=C(\CCC=C(C)C)C(=O)O` [Compound 21], the minimum inhibitory concentration (MIC) in data set [3], in data set [3] (setting [9]), in data set [4], in data set [4] (setting [10]), in data set [5] and in data set [5] (setting [11]) was 32 µg/mL (≈ 45.6 µM) each time. Moreover, the values for the MIC in [1] (setting [8]), in [6] and in data set [6] (setting [12]) were 2 to 8 µg/mL (≈ 2.85 to 11.4 µM), 32 µg/mL (≈ 45.6 µM) and 32 µg/mL (≈ 45.6 µM), respectively. In “in vitro”, the CC50 at 20 h turned out to be 24.2 µg/mL (≈ 34.5 µM). The 50% cytotoxic concentration (CC50) in data set [2] is listed as > 32 µg/mL. In “Hemolysis assay”, this molecule returned a hemolysis at 1 h of 8.7%. For the same molecule, the “Dmax (maximal percentage of hemolysis)” value in the data set with human red blood cells is 6.4%. In addition, the HC50 with human red blood cells is >32 >32 µg/mL.

With `CC(=O)O[C@H]1C[C@@]2(C)[C@@H](C[C@@H](O)[C@H]3[C@@]4(C)CC[C@@H](O)[C@@H](C)[C@@H]4CC[C@@]32C)/C1=C(\CCC=C(C)C)C(=O)O` [Fusidic acid], the minimum inhibitory concentration (MIC) was >32 >32 µg/mL in [3]; > 32 µg/mL in data set [3] (setting [9]); >32 >32 µg/mL in [4]; > 32 µg/mL in data set [4] (setting [10]); >32 >32 µg/mL in data set [5]; > 32 µg/mL in data set [5] (setting [11]). In addition, the minimum inhibitory concentration (MIC) in data set [1] was ≤0.25 ≤0.25 µg/mL; in data set [1] (setting [8]) it was ≤ 0.25 µg/mL; in [6], >32 >32 µg/mL; in [6] (setting [12]), > 32 µg/mL; in data set [7] (C. neoformans), >32 >32 µg/mL; in [7] (Cryptococcus neoformans, ATCC208821, C. neoformans), > 32 µg/mL. Moreover, in the data set “in vitro”, the CC50 at 20 h was > 32 µg/mL. Further, the CC50 in [2] was >32 >32 µg/mL. In “Hemolysis assay”, this molecule registered a hemolysis at 1 h of 10%. Also, the “Dmax (maximal percentage of hemolysis)” value in the data set on human red blood cells is reported as 9.7%. The HC50 in the data set on human red blood cells is recorded as >32 >32 µg/mL.

As usually defined, the MIC is the least concentration at which growth counts as inhibited. As a reminder, the CC50 is the concentration giving 50% cytotoxicity. For orientation: melting point means the temperature, or range, at which the solid turns liquid.
